# According to patent publication USRE32455E, “A-21978 antibiotics and process for their production” (priority 1985, dated 1987):
# Values joined by “and” are separate entries in the source; they are usually repeats but may differ in a detail not shown here. Identical values can stand only once. Like-named read-outs stand apart in the source and are kept apart here.
# Columns and labels:
# [1] = system: Fusobacterium necrophorum; experiment: MIC anaerobic bacteria, standard agar-dilution test; type: cell-based
# [2] = system: Peptococcus asaccharolyticus; experiment: as above; type: cell-based
# Bacteroides fragilis = experiment: as above; type: cell-based
# [3] = system: Peptostreptococcus anaerobius; experiment: as above; type: cell-based
# [4] = system: Streptococcus faecalis (Guze); experiment: In vitro susceptibility (MIC) of the S. faecalis Guze strain; type: cell-based
# [5] = system: Viridans Streptococcus 9943; experiment: MIC, standard broth-dilution test; type: cell-based; conditions: Table XII, sodium salt
# [6] = system: Streptococcus pneumoniae Park I; experiment: MIC, standard broth-dilution test; type: cell-based; conditions: Table XII, sodium salt
# Toxicity (LD50) in rat = type: in vivo; conditions: IV
# [7] = system: Group D Streptococcus 282; experiment: MIC, standard agar-dilution test; type: cell-based; conditions: Table XI, sodium salt
# [8] = system: pathogenic organisms, particularly gram-positive bacteria; experiment: Inhibition of growth of pathogenic organisms; type: cell-based
# Propionibacterium acnes = experiment: MIC anaerobic bacteria, standard agar-dilution test; type: cell-based
# [9] = system: Neisseria gonorrhoeae 111076-4; experiment: MIC, standard agar-dilution test; type: cell-based; conditions: Table XI, sodium salt
# [10] = system: Streptococcus faecalis (Guze); experiment: Streptococcus faecalis descending rat pyelonephritis test; type: in vivo, rat (female albino, Cox-Wistar)
# Description: In this test, the bacterial culture used was Streptococcus faecalis (Guze). The culture was grown on Trypticase soy agar (BBL), suspended in brain heart infusion broth (BBL), divided into 0.2-ml portions, and frozen in liquid nitrogen. Bacterial suspensions for rat inoculations were prepared daily by seeding a 50-ml flask of trypticase soy broth (BBL) from a frozen ampoule and growing the culture overnight at 37° C. on a shaker. The S. faecalis culture was diluted to 5×10^8 colony-forming units per ml. Test compounds were injected subcutaneously once daily for seven days. All compounds were suspended in 0.125% carboxymethylcellulose.
# The experimental rat infections were accomplished by the following procedure. Female, random-bred albino rats (Cox-Wistar) weighing 190 to 210 g were anesthetized by intraperitoneal injection of 12 mg of sodium methohexital supplemented as necessary. The experimental pyelonephritis model was based on the studies of Guze and Beeson in which the left ureter was occluded for 20 min, followed by injection of 0.5 ml of the test organism in the femoral vein. Antimicrobial therapy was commenced 4 to 5 hrs postinfection. Four hours after the last treatment the rats were sacrificed, and the left kidney was removed and homogenized in a Duall grinder containing 9 ml of physiological saline. This represented a 10^-1 dilution of the kidney tissue. Additional 10-fold dilutions in saline were based on the anticipated bacterial cells present in the tissue homogenate. Finally, duplicate agar pour plates were made from several of these dilutions, and the plates were incubated overnight at 37° C. The therapeutic results were expressed in two ways: (i) the percentage of rats with kidney counts of less than 10^2 per g of kidney tissue, referred to as "cures," and (ii) the percentage of rats with at least a 4-log10 reduction in bacterial titer compared with infected control kidneys. Control rats were treated with 0.125% carboxymethylcellulose only. Viable cell counts in kidney tissue from control rats with S. faecalis ranged from 1.2×10^8 to 4.6×10^8 per g of homogenized tissue.
# Clostridium perfringens = type: cell-based; conditions: anaerobic, agar-dilution
# [11] = system: Streptococcus pyogenes C203; experiment: MIC, standard agar-dilution test; type: cell-based; conditions: Table XI, sodium salt
# Micrococcus luteus = experiment: Bioassay, paper-disc agar-diffusion; conditions: Na salts; Table VIII
# [12] = system: Group D Streptococcus 282; experiment: MIC, standard broth-dilution test; type: cell-based; conditions: Table XII, sodium salt
# [13] = system: Peptostreptococcus intermedius; experiment: MIC anaerobic bacteria, standard agar-dilution test; type: cell-based
# Staphylococcus aureus [14] = experiment: MIC, agar dilution (Table XV); type: cell-based
# From the text: ^1 MIC = minimum inhibitory concentration (μg/ml), agar dilution
# Streptococcus pneumoniae [15] = experiment: MIC, agar dilution (Table XV); type: cell-based
# Clostridium septicum = experiment: MIC anaerobic bacteria, standard agar-dilution test; type: cell-based
# [16] = system: Streptococcus pyogenes C203; experiment: MIC, standard broth-dilution test; type: cell-based; conditions: Table XII, sodium salt
# [17] = system: Streptococcus pneumoniae Park I; experiment: MIC, standard agar-dilution test; type: cell-based; conditions: Table XI, sodium salt
# Fusobacterium symbiosum = experiment: MIC anaerobic bacteria, standard agar-dilution test; type: cell-based
# Toxicity (LD50) in mouse = type: in vivo
# Eubacterium aerofaciens = experiment: MIC anaerobic bacteria, standard agar-dilution test; type: cell-based
# [18] = Electrometric titration in 66% aqueous dimethylformamide; type: physicochemical; conditions: 66% DMF; Na salt; factors: two determinations
# Peptococcus prevoti = experiment: MIC anaerobic bacteria, standard agar-dilution test; type: cell-based
# Streptococcus pyogenes [19] = experiment: Experimental bacterial infection in mice, ED50; type: in vivo; conditions: two doses
# Description: (§1) When two doses of test compound were administered to mice in illustrative infections, the activity observed was measured as an ED50 value [effective dose in mg/kg to protect fifty percent of the test animals: See Warren Wick, et al., J. Bacteriol. 81, 233-235 (1961)].
# Staphylococcus aureus [20] = experiment: Experimental bacterial infection in mice, ED50; type: in vivo; conditions: two doses, subcutaneous administration
# Description: as §1
# Streptococcus pneumoniae [21] = experiment: Experimental bacterial infection in mice, ED50; type: in vivo; conditions: two doses, subcutaneous administration
# Description: as §1
# [22] = system: Viridans Streptococcus 9943; experiment: MIC, standard agar-dilution test; type: cell-based; conditions: Table XI, sodium salt
# Streptococcus pyogenes [23] = experiment: MIC, agar dilution (Table XV); type: cell-based
# [24] = system: Staphylococcus aureus 3055; experiment: MIC, standard broth-dilution test; type: cell-based; conditions: Table XII, sodium salt
# [25] = system: Staphylococcus aureus 3055; experiment: MIC, standard agar-dilution test; type: cell-based; conditions: Table XI, sodium salt
# Actinomyces isaelii = experiment: MIC anaerobic bacteria, standard agar-dilution test; type: cell-based
# S. roseosporus = experiment: Antibiotic sensitivity, sensitivity discs on seeded agar plates; type: cell-based, Streptomyces roseosporus; conditions: Conc./disc: erythromycin 15 μg, cephalothin 30 μg, lincomycin 2 μg, nystatin 100 units, polymyxin B 300 units, streptomycin 10 μg, tetracycline 30 μg, vancomycin "+μg"; also: key: +: sensitive (zones of inhibition); -: resistant (no zones of inhibition)
# Description: Temperature range, NaCl tolerance, pH range, and antibiotic sensitivity were done using ISP #2 agar medium. The range of temperatures were: 25°, 28°, 30°, 34°, 37°, 40°, 45°, 50° and 55° C. […] These were incubated at 30° C. The pH range was measured by adjusting the agar from pH 3.0 to 11.0 at increments of 1.0 pH units, just prior to pouring. Antibiotic sensitivity was determined using sensitivity discs padded onto seeded agar plates.
# A21978.6 = experiment: as above; type: cell-based, Streptomyces roseosporus; conditions: Conc./disc: erythromycin 15 μg, cephalothin 30 μg, lincomycin 2 μg, nystatin 100 units, polymyxin B 300 units, streptomycin 10 μg, tetracycline 30 μg, vancomycin "+μg"
# Description: Temperature range, NaCl tolerance, pH range, and antibiotic sensitivity were done using ISP #2 agar medium. The range of temperatures were: 25°, 28°, 30°, 34°, 37°, 40°, 45°, 50° and 55° C. NaCl tolerance was measured by adding NaCl to the agar to equal: 0, 1, 2, 3, 4, 5, 6, 8, 10 and 12%. These were incubated at 30° C. The pH range was measured by adjusting the agar from pH 3.0 to 11.0 at increments of 1.0 pH units, just prior to pouring. Antibiotic sensitivity was determined using sensitivity discs padded onto seeded agar plates.
# For Antibiotic sensitivity in this document: key: +: sensitive (zones of inhibition); -: resistant (no zones of inhibition).
compound,measurement,setting,value
CCC(C)CCCCCCCCC(=O)N[C@@H](Cc1c[nH]c2ccccc12)C(=O)N[C@@H](CC(N)=O)C(=O)N[C@@H](CC(=O)O)C(=O)N[C@@H]1C(=O)NCC(=O)N[C@@H](CCCN)C(=O)N[C@@H](CC(=O)O)C(=O)N[C@H](C)C(=O)N[C@@H](CC(=O)O)C(=O)NCC(=O)N[C@H](CO)C(=O)N[C@@H]([C@H](C)CC(=O)O)C(=O)N[C@@H](CC(=O)c2ccccc2N)C(=O)O[C@@H]1C (some centres unmarked) [Factor C3],MIC,[1],32 µg/mL
same,MIC,[2],1.0 µg/mL
same,MIC,Bacteroides fragilis,> 128 µg/mL
same,MIC,[3],1.0 µg/mL
same,MIC,[4]; Table XVI,0.13 µg/mL
same,MIC,[5],32.0 µg/mL
same,MIC,[6],0.5 µg/mL
same,LD50,Toxicity (LD50) in rat,< 160 mg/kg
same,MIC,[7],0.13 µg/mL
same,growth inhibition,[8],"inhibit the growth of certain pathogenic organisms, particularly gram-positive bacteria"
same,MIC,Propionibacterium acnes,1.0 µg/mL
same,MIC,[9],4.0 µg/mL
same,Percent of Rats Cured,"[10]; 1.0 mg/kg × 7, subcutaneous",78%
same,Percent of Rats with a 4-Log Titer Decrease,"[10]; 1.0 mg/kg × 7, subcutaneous",78%
same,MIC,Clostridium perfringens,8 µg/mL
same,MIC,[11],0.25 µg/mL
same,Bioassay (Micrococcus luteus),Micrococcus luteus,803 units/mg
same,MIC,[12],0.13 µg/mL
same,MIC,[13],< 0.5 µg/mL
same,MIC,Staphylococcus aureus [14],0.06 µg/mL
same,MIC,Streptococcus pneumoniae [15],0.03 µg/mL
same,MIC,Clostridium septicum,1.0 µg/mL
same,MIC,[16],0.13 µg/mL
same,MIC,[17],0.13 µg/mL
same,MIC,Fusobacterium symbiosum,16 µg/mL
same,LD50,Toxicity (LD50) in mouse; IV,< 50 mg/kg
same,LD50,Toxicity (LD50) in mouse; SC,70 to 75 mg/kg
same,MIC,Eubacterium aerofaciens,4 µg/mL
same,pKa (first group),[18],5.73 and 5.75
same,pKa (second group),[18],7.54 and 7.58
same,MIC,Peptococcus prevoti,< 0.5 µg/mL
same,ED50,Streptococcus pyogenes [19],0.032 mg/kg
same,ED50,Streptococcus pyogenes [19]; oral administration,66 mg/kg
same,ED50,Staphylococcus aureus [20],0.08 mg/kg
same,ED50,Streptococcus pneumoniae [21],0.09 mg/kg
same,MIC,[22],0.5 µg/mL
same,MIC,Streptococcus pyogenes [23],0.06 µg/mL
same,MIC,[24],0.13 µg/mL
same,MIC,[25],0.06 µg/mL
same,MIC,Actinomyces isaelii,1.0 µg/mL
C[C@@H]1[C@H](O)[C@@H](C)/C=C/C=C/CC/C=C/C=C/C=C/C=C/C(O[C@H]2O[C@H](C)[C@@H](O)[C@H](N)[C@@H]2O)CC2O[C@](O)(CC(O)C(O)CCC(O)CC(O)CC(O)CC(=O)O[C@H]1C)CC(O)C2C(=O)O (some centres unmarked) [Nystatin],Antibiotic sensitivity,S. roseosporus,-
same,Antibiotic sensitivity,A21978.6,-
Polymyxin B,Antibiotic sensitivity,S. roseosporus,-
same,Antibiotic sensitivity,A21978.6,+
CCC[C@@H]1C[C@@H](C(=O)N[C@@H]([C@H]2O[C@H](SC)[C@H](O)[C@@H](O)[C@H]2O)[C@@H](C)O)N(C)C1 [Lincomycin],Antibiotic sensitivity,S. roseosporus,-
same,Antibiotic sensitivity,A21978.6,-
CC(=O)OCC1=C(C(=O)O)N2C(=O)[C@@H](NC(=O)Cc3cccs3)[C@H]2SC1 [Cephalothin],Antibiotic sensitivity,S. roseosporus,+
same,Antibiotic sensitivity,A21978.6,+
"CC[C@H]1OC(=O)[C@H](C)[C@@H](O[C@H]2C[C@@](C)(OC)[C@@H](O)[C@H](C)O2)[C@H](C)[C@@H](O[C@@H]2O[C@H](C)C[C@H](N(C)C)[C@H]2O)[C@](C)(O)C[C@@H](C)C(=O)[C@H](C)[C@@H](O)[C@]1(C)O [Erythromycin, reference compound]",Antibiotic sensitivity,S. roseosporus,+
same,MIC,"Staphylococcus aureus [14]; Staphylococcus aureus, read-out: MIC",0.13 µg/mL
same,MIC,"Streptococcus pneumoniae [15]; Streptococcus pneumoniae, read-out: MIC",0.5 µg/mL
same,Antibiotic sensitivity,A21978.6,+
same,MIC,"Streptococcus pyogenes [23]; Streptococcus pyogenes, read-out: MIC",0.13 µg/mL
[H]/N=C(/N)N[C@H]1[C@H](O)[C@@H](O)[C@H](O[C@@H]2O[C@@H](C)[C@](O)(C=O)[C@H]2O[C@@H]2O[C@@H](CO)[C@H](O)[C@@H](O)[C@@H]2NC)[C@@H](N/C(N)=N\[H])[C@@H]1O [Streptomycin],Antibiotic sensitivity,S. roseosporus,+
same,Antibiotic sensitivity,A21978.6,+
CN(C)C1C(=O)C(C(N)=O)=C(O)C2(O)C(=O)C3=C(O)c4c(O)cccc4C(C)(O)C3CC12 (centres unmarked) [Tetracycline],Antibiotic sensitivity,S. roseosporus,+
same,Antibiotic sensitivity,A21978.6,+
"CN[C@H](CC(C)C)C(=O)N[C@H]1C(=O)N[C@@H](CC(N)=O)C(=O)N[C@H]2C(=O)N[C@H]3C(=O)N[C@H](C(=O)N[C@H](C(=O)O)c4cc(O)cc(O)c4-c4cc3ccc4O)[C@H](O)c3ccc(c(Cl)c3)Oc3cc2cc(c3O[C@@H]2O[C@H](CO)[C@@H](O)[C@H](O)[C@H]2O[C@H]2C[C@](C)(N)[C@H](O)[C@H](C)O2)Oc2ccc(cc2Cl)[C@H]1O [Vancomycin, reference compound]",MIC,[4]; Enterococcus faecalis,1 µg/mL
same,Percent of Rats Cured,"[10]; 12.0 mg/kg × 7, subcutaneous",33%
same,Percent of Rats with a 4-Log Titer Decrease,"[10]; 12.0 mg/kg × 7, subcutaneous",55%
same,Antibiotic sensitivity,S. roseosporus,+
same,Antibiotic sensitivity,A21978.6,+
